What was measured:
MPTP-treated monkeys = conditions: combined with L-Dopa or selective dopamine agonists (D1 or D2); cited from earlier work
GABA-A = test: Fluridone/bicuculline in vivo GABA-A agonism/antagonism assay; conditions: mice, bicuculline 5 mg/kg alone

For `CCn1c(=O)c2c(nc(/C=C/c3ccc(OC)c(OC)c3)n2C)n(CC)c1=O` [KW-6002], the dyskinesia (MPTP-treated monkeys) is given as “does not induce dyskinesia”.

In the case of `CN1CCc2cc3c(cc2[C@H]1[C@@H]1OC(=O)c2c1ccc1c2OCO1)OCO3` [bicuculline], the seizures (GABA-A) is reported as “induced immediate seizures” and the Death rate (GABA-A; within ten to twenty second after injection) is reported as 100%.
